Data from patent US8389739B1, “Modulators of retinoid-related orphan receptor gamma” (Orphagen Pharmaceuticals, priority 2006, dated 2013).
Entries after “also recorded” stand apart in the source; their conditions may differ. Like-named read-outs stand apart in the source and are kept apart here.

What was measured:
[1] = biological target: T1, human RORγ (Homo sapiens, UniProt P51449); experiment: Transcriptional assay of human RORγ (Gal4-hRORγ); assay type: cell-based; conditions: Table 4B
T1 construct: expressed in transfected cells; host or cells: CHO cells, transient transfection
T1 sequence (P51449 253-518): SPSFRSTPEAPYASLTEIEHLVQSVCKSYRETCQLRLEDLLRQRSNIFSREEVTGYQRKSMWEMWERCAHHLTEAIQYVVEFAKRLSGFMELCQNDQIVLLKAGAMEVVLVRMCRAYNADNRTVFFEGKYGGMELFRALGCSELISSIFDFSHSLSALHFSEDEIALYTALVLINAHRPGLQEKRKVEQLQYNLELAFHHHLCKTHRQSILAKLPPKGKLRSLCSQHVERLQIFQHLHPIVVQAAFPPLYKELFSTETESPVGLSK
Experimental: The complete Gal4-hRORγ nucleotide sequence is shown below:
A firefly luciferase reporter gene for Gal4 DBD hybrid receptors, such as Gal4-RORγ, contains five copies of the Gal4 17-mer response element in its promoter and the coding sequence for firefly luciferase (pG5-luc, Promega). CHO (Chinese Hamster Ovary) cells were cultured in Ham's F12 medium supplemented with 10% fetal calf serum (Gemini Biologicals), 10 μg/ml penicillin and streptomycin, and were maintained in a humidified 37° C. incubator (Thermo Electron, Steri-Cycle) with 5% CO2. 24 hours before transfection, cells were plated in T175 flasks (5×10^6 cells/flask) or T75 flasks (1.7×10^6 cells/flask). Transient transfection of CHO cells was performed using TransIT-CHO reagents (Minis, Madison, Wis.) with a mixing ratio of 2:6:1 between plasmid DNA (in μg), TransIT-CHO (in μl) and CHO-mojo (in μl).
Plates are maintained at 37° C. in a humidified atmosphere with 7% CO2 overnight. Four (4) hours after cell seeding, compounds dissolved in DMSO at 10 mM were added to cells at final concentrations of 20 micromolar (μM) to 20 nanomolar (nM) in 0.2% DMSO in triplicate plates. Approximately 40 hours later, cytotoxicity in the assay well was characterized by addition of the dye resazurin (O'Brien, Wilson et al. 2000) to a final concentration of 3 μM. […] Percent viability was determined as 2 hour fluorescence, minus background at t=0 hours, normalized to DMSO controls. For detection of luciferase activity, media was removed from plates after the measurement of resazurin conversion, and SteadyLite luciferase reagent (Perkin-Elmer) was added (30 μl/well). Luminescence is detected with a Victor 2-V plate reader (Perkin-Elmer) and normalized to luciferase activity of DMSO control wells alone.

[2] = system: TH-17 cell differentiation from naïve CD4+ T cells; experiment: Differentiation of naïve CD4+ T cells, intracellular IL-17/IFN-γ staining by FACS (TH-17 protocol, TGFβ + IL-6); assay type: cell-based, mouse
[3] = system: IL-22 release in lymph node cultures; experiment: Lymph node cell cultures from MOG-immunized C57BL/6 mice, IL-22 ELISA; assay type: cell-based; conditions: 3 μM each (FIG. 15)
Experimental: FIGS. 15A-B. IL-22 release in lymph node cultures is regulated by RORγ ligands. Lymph node cells from MOG-immunized C57BL/6 mice were cultured for 3 days with 30 μg/ml MOG, […] IL-23 (FIG. 15A) and 3 μM compounds (FIG. 15B). Culture media were analyzed by IL-22 ELISA.
ELISA kits for mouse IL-17 and human IL-17 were from eBioscience (San Diego, Calif.). ELISA assays were performed following the manufacturer's protocol. Certain samples were diluted 20-fold to avoid maximization of enzymatic signals. For mouse IL-22 ELISA, antibodies and standards were from Antigenix America (Huntington Station, N.Y.) and accessory components were from eBioscience. The IL-22 assay protocol was similar to that of the IL-17 assays.
The proinflammatory cytokine IL-22 is also expressed in Th-17 cells. […] In addition, IL-22 seems to have 30-50 fold higher levels than IL-17. […] This is illustrated in FIG. 15.

[4] = system: CHO cells; experiment: Cytotoxicity in CHO cells (resazurin conversion); assay type: cell-based, Chinese Hamster
Experimental: Four hours after transfection, cells were dislodged with trypsin and seeded into a 384-well plate at 8,000 cells/well using a Titertek Multidrop 384. Edge effects within the 384-well plate were minimized by leaving plates at room temperature for 30 min so that cells plated evenly within each well (Lundholt, Scudder et al. 2003). Plates are maintained at 37° C. in a humidified atmosphere with 7% CO2 overnight. […] Approximately 40 hours later, cytotoxicity in the assay well was characterized by addition of the dye resazurin (O'Brien, Wilson et al. 2000) to a final concentration of 3 μM. After incubation for 2 hours at 37 degrees centigrade, the conversion of resazurin to resorufin was measured by fluorescence (excitation at 570 nm and emission at 615 nm). […] Percent viability was determined as 2 hour fluorescence, minus background at t=0 hours, normalized to DMSO controls. For detection of luciferase activity, media was removed from plates after the measurement of resazurin conversion, and SteadyLite luciferase reagent (Perkin-Elmer) was added (30 μl/well). Luminescence is detected with a Victor 2-V plate reader (Perkin-Elmer) and normalized to luciferase activity of DMSO control wells alone.

[5] = system: human IL-17 release from PBMCs; experiment: Human IL-17 release from Con A stimulated PBMCs (ELISA); assay type: cell-based; conditions: 3 μM, 1 μg/ml Con A, 3 days
Source text: We also investigated whether human IL-17 is subject to regulation by RORγ ligands.

[6] = biological target: T2, mLXRα (Liver X receptor alpha) (Mus musculus, UniProt Q9Z0Y9); experiment: Transcriptional assay of LXRα (Gal4-LXRα hybrid); assay type: cell-based
T2 construct: 172-455; expressed in transfected cells; host or cells: CHO cells, transient transfection
T2 sequence (Q9Z0Y9 172-445 limits assumed): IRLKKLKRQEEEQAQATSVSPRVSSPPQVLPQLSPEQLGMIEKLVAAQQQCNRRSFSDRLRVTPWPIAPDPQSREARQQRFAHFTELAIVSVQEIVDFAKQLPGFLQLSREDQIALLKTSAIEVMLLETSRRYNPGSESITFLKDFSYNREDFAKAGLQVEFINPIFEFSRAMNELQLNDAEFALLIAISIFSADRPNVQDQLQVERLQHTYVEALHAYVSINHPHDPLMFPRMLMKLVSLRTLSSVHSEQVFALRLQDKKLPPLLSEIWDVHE

[7] = system: TH1 cell differentiation from naïve CD4+ T cells; experiment: Differentiation of naïve CD4+ T cells with IL-12 (Th-1 protocol), IFN-γ staining by FACS; assay type: cell-based, mouse

## CCN(c1ccc(C(O)(C(F)(F)F)C(F)(F)F)cc1)S(=O)(=O)c1ccc([N+](=O)[O-])cc1 [OR-1050, N-Ethyl-4-nitro-N-[4-(2,2,2-trifluoro-1-hydroxy-1-trifluoromethyl-ethyl)-phenyl]-benzenesulfonamide]
[1]
  EC50: 0.4 µM
[2]
  effect on TH-17 cell differentiation: significantly inhibited TH-17 cell differentiation in a dose-dependent manner; also recorded: decreases the proportion of IL-17^+ cells
[2]; Table 9, 3 μM (combination 3 μM each), 4 ng/ml TGFβ and 20 ng/ml IL-6, DMSO 2.32%
  Cell Frequency (%) TH-17 Protocol IL-17^+: 0.44%
[2]; Table 9, 3 μM (combination 3 μM each), DMSO 1.60%
  Cell Frequency (%) TH-17 Protocol IFN-γ^+: 1.42%
[2]; Table 11, 3 μM, DMSO vehicle 1.03%
  Cell Frequency (%) Th-17 Differentiation IFN-γ^+: 1.09%
[2]; Table 11, 3 μM, DMSO vehicle 3.81%
  Cell Frequency (%) Th-17 Differentiation IL-17^+: 1.47%
[3]
  IL-22 production in LN cultures: inhibited
[4]
  concentration not cytotoxic to CHO cells: 50 µM
[5]
  Con A stimulated IL-17 release into culture medium: inhibited
[6]
  Emax: > 80%
  potency in repression of RORγ transcription relative to induction of LXR transcription: approximately 5 fold
[6]; Table 6, read-out: Potency (EC50) at mLXRα
  EC50: 1 to 10 µM
[6]; comparison of transcriptional assays for RORγ and LXRα (Table 7)
  specificity for RORγ versus LXRα: more specific for RORγ than LXRα
[6]; read-out: EC50 at LXRα in transcriptional assays
  EC50: 1.5 µM
[7]; Table 9, 3 μM (combination 3 μM each), 10 ng/ml IL-12, DMSO 36.3%
  Cell Frequency (%) Th-1 Protocol IFN-γ^+: 37.4%
[7]; in the presence of IL-12, 3 μM
  effect on TH1 cell differentiation: does not inhibit TH1 differentiation
